The values below come from PubChem BioAssay AID651677 (The Scripps Research Institute Molecular Screening Center, 2012).

Several values for one entry are separate records, joined by “and”; a condition that tells them apart may be missing. Identical values can stand only once. Activity calls are given as the source filed them. How the calls were made is not given here.

The test addresses Perilipin-5 (Homo sapiens) + 1-acylglycerol-3-phosphate O-acyltransferase ABHD5 (Homo sapiens) (UniProt Q00G26+Q8WTS1). In words: blockers of ABHD5 binding to perilipin-5 – biochemical, luminescence, dose response (AID 651677). The settings on record: ABHD5-PLIN5 interaction.

One may read the IC50 as the concentration needed to halve the response being measured.

Sequence of Perilipin-5 (Homo sapiens) + 1-acylglycerol-3-phosphate O-acyltransferase ABHD5 (Homo sapiens) (Q00G26 whole entry, looked up): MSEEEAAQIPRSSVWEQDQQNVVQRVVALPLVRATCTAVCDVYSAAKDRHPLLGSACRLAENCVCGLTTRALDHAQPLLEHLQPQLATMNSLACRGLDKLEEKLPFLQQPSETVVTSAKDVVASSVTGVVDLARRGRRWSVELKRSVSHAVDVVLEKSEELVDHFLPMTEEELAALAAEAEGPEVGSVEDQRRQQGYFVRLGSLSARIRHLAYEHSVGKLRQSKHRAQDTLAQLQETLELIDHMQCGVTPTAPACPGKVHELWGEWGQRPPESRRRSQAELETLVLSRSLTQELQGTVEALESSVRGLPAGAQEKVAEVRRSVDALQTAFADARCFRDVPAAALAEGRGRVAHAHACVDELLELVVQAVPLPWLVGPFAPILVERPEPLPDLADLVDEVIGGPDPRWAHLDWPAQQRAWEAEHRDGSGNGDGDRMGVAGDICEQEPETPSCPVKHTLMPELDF
Sequence of Perilipin-5 (Homo sapiens) + 1-acylglycerol-3-phosphate O-acyltransferase ABHD5 (Homo sapiens) (Q8WTS1 whole entry, looked up): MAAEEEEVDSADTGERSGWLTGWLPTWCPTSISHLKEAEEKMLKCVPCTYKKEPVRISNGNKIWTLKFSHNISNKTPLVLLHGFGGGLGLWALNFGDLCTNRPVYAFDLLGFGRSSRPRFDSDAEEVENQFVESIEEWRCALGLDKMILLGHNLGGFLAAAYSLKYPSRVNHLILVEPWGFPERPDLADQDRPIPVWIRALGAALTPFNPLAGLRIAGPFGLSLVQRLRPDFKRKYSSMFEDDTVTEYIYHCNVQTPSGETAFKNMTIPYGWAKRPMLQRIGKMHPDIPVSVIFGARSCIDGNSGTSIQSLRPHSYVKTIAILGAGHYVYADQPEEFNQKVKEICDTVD

On to `O=C(NCc1ccccc1)C(c1ccc(C(F)(F)F)cc1)n1c(=O)c(-c2ccco2)nc2ccccc21` (stereo not drawn), for which the half-inhibitory concentration (IC50) was 1310 nM.
Next, `NC(=NCCCCCCN=C(N)/N=C(\N)Nc1ccc(Cl)cc1)/N=C(\N)Nc1ccc(Cl)cc1`: 3820 nM and 1660 nM.
As to `Cc1ccc(NC(=O)CSc2nnc(-c3ccco3)c(-c3ccco3)n2)cc1`, the IC50 was 1180 nM.
On to `CCCCCNC(=O)C(c1cccc2ccccc12)n1c(=O)c(-c2ccco2)nc2ccccc21` (stereo not drawn), for which the IC50 is 1570 nM.
Next, `CCCCCNC(=O)C(c1ccc(C(F)(F)F)cc1)n1c(=O)c(-c2ccco2)nc2ccccc21` (stereo not drawn): 1820 nM; `COc1ccc(NC(=S)N(CCCN2CCCC2)Cc2cccn2Cc2ccc(Cl)cc2)cc1Cl`: “inactive”; `COc1ccccc1C=CC(=O)C=Cc1ccccc1OC`: 4790 nM.
With `CCCCNC(=O)Nc1ccc2c(c1)N(C)C(=O)c1ccccc1S2` the figure was 4080 nM; with `CN(C)CCN(Cc1ccco1)c1ccccn1`, 7750 nM.
With `CCCCC(=O)NC(c1cccc([N+](=O)[O-])c1)c1ccc2cccnc2c1O` (stereo not drawn), the IC50 was > 39800 nM (inactive).
With `N#Cc1ccc(C(C(=O)Nc2ccc3c(c2)OCCO3)n2c(=O)c(-c3ccco3)nc3ccccc32)cc1` (stereo not drawn) the figure was 7270 nM; with `CC(C)c1nnc(NC(=O)c2nc(S(=O)(=O)Cc3ccc(F)cc3)ncc2Cl)s1`, 1940 nM; with `CCOC1=CC2=C(C(=O)C(Cl)=CC2=O)[C@@H]2CN(S(=O)(=O)c3ccc(C)cc3)[C@@H](c3ccccc3)[C@H]12`, 941 nM.
For `COc1cc(C)c2sc3ccccc3c(=O)c2c1NCCN(C)C`, the IC50 was 3840 nM.
In the case of `Cc1ccc(C(=O)/C=C/c2cc(Br)cc(Br)c2O)o1`, the IC50 is 5540 nM.
With `CCCc1nnc(NC(=O)c2nc(S(=O)(=O)Cc3cccc(C)c3)ncc2Cl)s1` the figure was 3410 nM.
With `CC(C)(C)NC(=O)C(c1cc2ccccc2o1)n1c(=O)c(-c2ccco2)nc2ccccc21` (stereo not drawn) the figure was 1550 nM; with `COc1ccc(C(C(=O)NC(C)(C)C)n2c(=O)c(-c3ccco3)nc3ccccc32)cc1` (stereo not drawn), 1690 nM; with `O=C(NC1CCCCC1)C(c1ccccc1F)n1c(=O)c(-c2ccco2)nc2ccccc21` (stereo not drawn), 1260 nM.
Next, `CC(c1nc2ccccc2[nH]1)n1c(=O)c(-c2ccco2)nc2ccccc21` (stereo not drawn): 2760 nM; `CN1CCC(=C2c3ccccc3CC(=O)c3sccc32)CC1`: “inactive”.
On to `Cc1ccc(/C(O)=C2/C(=O)C(=O)OC2c2ccc(Cl)cc2)cc1` (stereo not drawn), for which the IC50 was 9720 nM.
With `O=C(Nc1ccc(Cl)cc1)/C(=C/c1cccc(O)c1)c1nc2ccccc2s1` the figure was 2100 nM; with `CCN(CC)CCN(CC(=O)Nc1c(C)cc(C)cc1C)C(=O)c1ccccc1`, 9740 nM.
Next, `CS(=O)(=O)c1ccc(C(=O)NCCN2C(=O)S/C(=C\c3cccnc3)C2=O)cc1[N+](=O)[O-]`: 3670 nM.
Turning to `COc1ccc(C(C(=O)NCc2ccccc2)n2c(=O)c(-c3ccco3)nc3ccccc32)cc1` (stereo not drawn), the IC50 is 2220 nM.
Turning to `CSc1nnc(NC(=O)c2nc(S(=O)(=O)Cc3ccc(C)cc3)ncc2Cl)s1`, the concentration for half-maximal inhibition (IC50) is 2510 nM.
With `CCc1nnc(NC(=O)c2nc(S(=O)(=O)Cc3cccc(C)c3)ncc2Cl)s1` the figure was 3330 nM; with `CN(C)CCCN(C(=O)CCc1ccccc1)c1nc2ccc(Cl)cc2s1`, 7370 nM; with `O=c1nc(/C=C/c2ccc(Cl)cc2Cl)cc(C(F)(F)F)[nH]1`, 3480 nM.
As for `O=C(/C(=C/O)N=Nc1ccc(Cl)cc1)c1ccncc1`, the IC50 was 8340 nM.
With `O=C1/C(=C/c2cccnc2)CC/C1=C\c1cccnc1` the figure was 3310 nM; with `CC(C)(C)NC(=O)C(c1ccc(C#N)cc1)n1c(=O)c(-c2ccco2)nc2ccccc21` (stereo not drawn), 1850 nM; with `Cc1ccc(C(=O)c2coc3c2C(=O)C(=O)c2ccccc2-3)cc1`, 2530 nM.
Next, `Cc1nnc(NC(=O)c2nc(S(=O)(=O)Cc3ccccc3C)ncc2Cl)s1`: 2710 nM; `O=C(C[n+]1cccc(CNC(=O)c2ccc(OC(F)F)cc2)c1)Nc1cccc(C(F)(F)F)c1`: “inactive”; `CCN(CC)CCC(C)OC(c1ccccc1)c1ccccc1` (stereo not drawn): 3420 nM.
As for `Cc1ccc(SC2=C(Sc3ccc(C)cc3)C(=O)c3ccccc3C2=O)cc1`, the IC50 is 1000 nM.
As to `CCOc1cc(N)c(Cl)cc1C(=O)NCC1CN(Cc2ccc(F)cc2)CCO1` (stereo not drawn), the IC50 was 2500 nM.
Next, `CC(C)(C)NC(=O)C(C1CC1)n1c(=O)c(-c2ccco2)nc2ccccc21` (stereo not drawn): 2740 nM; `O=C(/C(=C/c1ccccc1)n1cncn1)c1ccc(Cl)cc1Cl`: 2490 nM; `C=C1C(=O)O[C@H]2C[C@H]1[C@@H](OC(C)=O)C/C(C)=C/CC/C(C)=C\CC[C@]2(C)O`: 1910 nM.
With `O=C1NC(=S)NC(=O)C12C(c1ccccc1)NC(=S)NC2c1ccccc1` (stereo not drawn) the figure was 4390 nM.
Regarding `CCN(CC)CCOCCOC(=O)C1(c2ccccc2)CCCC1`, the IC50 was 2030 nM.
Next, `CCOC(=O)c1c(NC(=O)/C=C/C(=O)O)sc(C)c1-c1ccc(C(C)(C)C)cc1`: 6740 nM.
Next, `CCCCCCC=C1CCC(CN2CCCC2)C1=O` (stereo not drawn): 1940 nM.
Next, `COCCNC(=O)/C(C#N)=C/c1cccc(/C=C(\C#N)C(=O)NCCOC)c1`: 727 nM; `O=C(Nc1ccc2c(c1)OCCO2)C(c1ccnc2ccccc12)n1c(=O)c(-c2ccco2)nc2ccccc21` (stereo not drawn): “inactive”.
As for `N#Cc1ccccc1OCc1cn(CC(=O)c2ccc(O)cc2)nn1`, the half-maximal inhibitory concentration (IC50) is 3680 nM.
With `COc1ccc(NC(=O)C(c2ccc(C#N)cc2)n2c(=O)c(-c3ccco3)nc3ccccc32)cc1` (stereo not drawn) the figure was 8620 nM; with `Cc1cccc(C)c1NC(=O)C(c1ccc(-c2ccccc2)cc1)n1c(=O)c(-c2ccco2)nc2ccccc21` (stereo not drawn), 1330 nM; with `COc1cc(C(C)=O)ccc1OCc1cn(CC(=O)c2ccc(O)cc2)nn1`, 4430 nM.
Next, `CCSc1nnc(NC(=O)c2nc(S(=O)(=O)Cc3ccc(F)cc3)ncc2Cl)s1`: 2360 nM; `Cc1ccc2sc(N(CCCN(C)C)C(=O)CN3C(=O)c4ccccc4C3=O)nc2c1C`: “inactive”; `O=C(Nc1ccc2c(c1)OCCO2)C(c1ccccc1F)n1c(=O)c(-c2ccco2)nc2ccccc21` (stereo not drawn): “inactive”.
With `CSc1nnc(NC(=O)c2nc(S(=O)(=O)Cc3ccccc3F)ncc2Cl)s1` the figure was 2770 nM; with `Cc1ccc(O)c(C(=O)/C=C/c2ccc3c(c2)OCCCO3)c1`, 4130 nM.
Take `N#Cc1ccc(C(C(=O)NC2CCCCC2)n2c(=O)c(-c3ccco3)nc3ccccc32)cc1` (stereo not drawn): the IC50 was 1880 nM.
As for `NC(=O)C(C(=O)/C=C/c1ccc(Cl)cc1)=C1SCCS1`, the IC50 entry is “inactive”.
Consider `O=c1[nH]c(C2CCN(S(=O)(=O)c3ccc(F)cc3)CC2)nc2c1nnn2Cc1ccc2c(c1)OCCO2`, for which the IC50 entry is “inactive”.
Next, `C=C[C@]1(C)C[C@@H](OC(=O)CSCCN(CC)CC)[C@]2(C)C(C)CC[C@]3(CCC(=O)[C@H]32)[C@@H](C)[C@@H]1O` (stereo partly drawn): 8040 nM; `Cc1ccc(CS(=O)(=O)c2ncc(Cl)c(C(=O)Nc3nnc(C(C)C)s3)n2)cc1`: 1380 nM.
On to `O=C(NC1CCCCC1)C(c1cccc2ccccc12)n1c(=O)c(-c2ccco2)nc2ccccc21` (stereo not drawn), for which the IC50 was 940 nM.
With `CC(O)CC(=O)OC[C@]12CC[C@H]3[C@@](C)(CC[C@H]4C(C)(C)CCC[C@]34C)[C@@H]1CC(C1=CC(=O)OC1O)O2` (stereo partly drawn) the figure was 857 nM; with `CN(C)CCCN(C(=O)CCc1ccccc1)c1nc2ccc(Br)cc2s1`, 7910 nM; with `Cc1ccc(C(=O)c2c(C)oc3c2C(=O)C(=O)c2ccccc2-3)cc1`, 3820 nM.
On to `O=c1c(-c2ccco2)nc2ccccc2n1C(CCc1ccccc1)c1nc2ccccc2[nH]1` (stereo not drawn), for which the concentration for half-maximal inhibition (IC50) is 1580 nM.
Next, `O=[N+]([O-])/C=C/c1cn(Cc2ccc(F)cc2)c2ccccc12`: 3360 nM.
Take `Cc1cc(C)c(NC(=O)C[N+](C)(C)CC(O)COc2cccc3ccccc23)c(C)c1` (stereo not drawn): the half-maximal inhibitory concentration (IC50) is 7490 nM.
With `CC1=CC(C)(C)Nc2ccc(OC(=O)c3cccnc3)cc21` the figure was 2230 nM; with `O=C(Cn1c(=O)n(Cc2ccco2)c(=O)c2c3c(sc21)CCCC3)Nc1ccccc1`, “inactive”; with `COc1ccc(C(C(=O)Nc2ccc3c(c2)OCCO3)n2c(=O)c(-c3ccco3)nc3ccccc32)cc1` (stereo not drawn), 7560 nM.
Next, `CC(=O)Oc1c(Cl)cc(N(C(C)=O)S(=O)(=O)c2ccccc2)c2ccccc12`: 6550 nM.
In the case of `CCCCCNC(=O)C(c1ccc(C#N)cc1)n1c(=O)c(-c2ccco2)nc2ccccc21` (stereo not drawn), the half-maximal inhibitory concentration (IC50) is 3150 nM.
With `Oc1c(C(c2ccccc2)N2CCCCC2)ccc2ccccc12` (stereo not drawn) the figure was 845 nM.
Next, `CCOC(=O)N1CCN(C(=O)C[C@@H]2C[C@@]3(C(=O)OCC)CCC=C3N(Cc3ccc(Cl)cc3Cl)C2=O)CC1`: “inactive”; `CC(C)(C)NC(=O)C(c1ccc(C(F)(F)F)cc1)n1c(=O)c(-c2ccco2)nc2ccccc21` (stereo not drawn): 1330 nM.
Next, `O=C(NC1CCCCC1)C(c1ccccc1)n1c(=O)c(-c2ccco2)nc2ccccc21` (stereo not drawn): 670 nM.
For `O=CC1=C(c2ccccc2)Oc2ccccc2O1`, the 50% inhibitory concentration (IC50) was 3520 nM.
Next, `CCCCCNC(=O)C(C1CC1)n1c(=O)c(-c2ccco2)nc2ccccc21` (stereo not drawn): 9790 nM; `O=C(NC1CCCCC1)C(c1ccc(C(F)(F)F)cc1)n1c(=O)c(-c2ccco2)nc2ccccc21` (stereo not drawn): 1250 nM.
Take `CC1CCN(S(=O)(=O)c2ccc(NC(=O)Cc3cccs3)cc2)CC1`: the IC50 result is “inactive”.
With `COc1ccccc1/C=C/C(=O)c1ccccc1` the figure was 6630 nM.
With `COc1ccc(-c2cc(N)n(S(=O)(=O)c3c(F)c(F)c(F)c(F)c3F)n2)cc1OC` the figure was 6830 nM.
Next, `CC(=O)OCC1=C(C(=O)O)N2C(=O)C(NC(=O)CCn3nc(C(F)(F)F)c(Br)c3C3CC3)C2SC1` (stereo not drawn): 5240 nM.
With `Cc1ccc(C)c(/C=C/C(=O)c2ccccc(=O)c2O)c1`, the half-inhibitory concentration (IC50) was 4050 nM.
With `COc1ccccc1-c1cc(C(=O)NC2CCN(C)CC2)c2ccc(Cl)c(C)c2n1` the figure was 7180 nM.
With `O=C1NC(=O)N(Cc2ccccc2)C(=O)/C1=C\C=C\c1ccco1` the figure was 1320 nM.
